Source: US20240125729A1, “METHODS AND RELATED ASPECTS OF DETECTING TARGET MOLECULES USING CYCLIC VOLTAMMETRY” (THE JOHNS HOPKINS UNIVERSITY, priority 2021, published 2024)
Where “and” joins values, the source holds several entries; their conditions need not be identical. Equal values may be shown once.

Columns and labels:
[1] = biological target: procaine-binding aptamer; experiment: Cyclic voltammetry ΔEP interrogation of procaine-detecting E-AB sensors in undiluted serum
Method: (§1) ΔEP-based interrogation of E-AB sensors supports molecular measurements in complex media such as undiluted serum. Moreover, the approach can be used to interrogate E-AB sensors detecting different molecular targets. […] Furthermore, the relative change in ΔEP at 10 mM tobramycin was 30% less than the gain seen in phosphate-buffered saline. Both of these effects were previously reported for serum tobramycin E-AB measurements performed by chronoamperometry, confirming that ΔEP is not more prone to fouling than, for example, chronoamperometric current decay lifetimes. […] Last, procaine-detecting E-AB sensors presented the largest change in ΔEP, corresponding to a relative decrease of ˜80% at saturating procaine concentrations (FIG. 11C). Based on our calibration curve, the procaine-binding aptamer has a KD of ˜500 μM, slightly better than the affinity obtained by, for example, square-wave voltammetry (KD˜2 mM, FIG. 12). […]
(§2) Electrochemical measurements. […] Cyclic voltammograms were recorded at different scan rates in the potential window from −0.5 V to +0.1 V vs Ag/AgCl (1M KCl). Square-wave voltammograms were recorded from 0 V to −0.5 V vs Ag/AgCl (1M KCl) with an amplitude of 50 mV, a step size of 1 mV, and at 300 Hz. […]
(§3) Electrode modification. […] After rinsing with water, electrodes were ready for use. […]

[2] = biological target: procaine-binding aptamer; experiment: Square wave voltammetry calibration of procaine-binding E-AB sensors; details: 100 Hz, amplitude 50 mV, step 1 mV, read-out: KD (dissociation constant) by square-wave voltammetry
Method: FIG. 12 is a plot showing a calibration curve for procaine-binding E-AB sensors obtained by square wave voltammetry. The Hill's coefficient and dissociation constant obtained were 0.97±0.05 and 1.9±0.2 mM, respectively. Each point represents the average of 5·measurements at a frequency of 100 Hz, amplitude of 50 mV, and step potential of 1 mV.
These sequences were purchased modified on the 5′end with hexanethiol and on the 3′end with MB, and double HPLC purified. To prepare aptamer solutions for electrode modification, 1 μL of 100 μM of the modified sequences was incubated with 2 μL of 5 mM TCEP solution in water for 1 hour to reduce the disulfide bonds. Then, we diluted the aptamer solutions in 1 mM 6-mercaptohexanol aqueous solution to a final aptamer concentration of 500 nM.
as §2, with “measurements. Gold working (PN 002314, d=1.6 mm) and coiled platinum wire counter electrodes (PN 012961) were purchased from ALS Inc. (Japan). Ag/AgCl (1M KCl) reference electrodes (PN CHI111) were purchased from CH Instruments (USA).” for “measurements.”
as §3

[3] = test system: tobramycin-binding aptamer; experiment: Cyclic voltammetry (ΔEP / IP) interrogation of tobramycin-detecting E-AB sensors
Description: The magnitude of ΔEP in cyclic voltammetry can be used to interrogate changes in the apparent electron transfer kinetics of E-AB sensors. ΔEP is affected by a mass transfer (diffusional) component related to the conformation switching behavior of aptamers; thus, measured changes in ΔEP reflect target-binding induced changes in aptamer conformation. We first illustrate this effect employing tobramycin-detecting E-AB sensors (FIG. 5), which have been extensively validated in the literature and represent a well-understood model system. In these E-AB sensors, interrogation by cyclic voltammetry in the absence of target and at voltage scanning rates of ˜1-10 V·s^−1 results in voltammograms with a ΔEP ˜100 mV (FIG. 5A). However, the addition of a saturating concentration of tobramycin (10 mM) causes a significant increase in apparent electron transfer kinetics with a concomitant decrease in ΔEP to ˜30 mV (FIG. 5A, B). Similar measurements at varying tobramycin concentrations can be translated into dose-response curves (FIG. 5C). The dissociation constant estimated by extrapolating the mid-point of these dose-response curves to the x-axis, KD˜80 μM, is similar to previously reported KD measurements based on chronoamperometric and differential pulse measurements.
As with all E-AB interrogation methods, there is a tradeoff between the maximum signal gain observed by ΔEP and the apparent dissociation constant of the sensors. To illustrate this, we measured dose-response curves as shown in FIG. 5C at scanning rates ranging from 0.5 to 100 V·s^−1 (FIG. 6). Then, we determined the apparent dissociation constant at each scanning rate by performing a non-linear regression of the data sets using the Hill isotherm. […] Moreover, the shape of the voltammograms was distorted at fast scanning rates, preventing the accurate determination of ΔEP (FIG. 8). Thus, taking into consideration the results presented in FIGS. 7A and B, we determined that the best CV interrogation rate for tobramycin-detecting E-AB sensor was 5 V·s^−1.
E-AB interrogation via ΔEP achieves larger signal gains relative to interrogation based on CV peak heights. To illustrate this point, we measured dose-response curves at the optimal voltage scanning rate of 5 V·s^−1 and compared the response based on voltammogram peak currents, IP, at varying tobramycin concentrations relative to the proposed ΔEP-based method (FIG. 7C). To achieve a direct comparison between approaches, we calculated the relative change in signal at each concentration with respect to the signal measured in the absence of target (this is common practice in the field). By graphing IP vs concentration, we observed a ‘signal-on’ type of response, with IP increasing to a plateau of 20% relative signal change at saturation. Using ΔEP, in contrast, we observed a ‘signal-off’ type of response, with ΔEP decreasing by 80% relative signal change at saturation. […] On the other hand, ΔEP provides a signal-off response that is less desirable than the signal-on response achieved by monitoring IP. Typically, the use of signal-off sensing is sub-optimal for continuous monitoring in complex fluids, as matrix effects can induce signal decreases unrelated to fluctuations in target concentration that can be confounding during sensing.
ΔEP-based interrogation of E-AB sensors supports molecular measurements in complex media such as undiluted serum. Moreover, the approach can be used to interrogate E-AB sensors detecting different molecular targets. […] Furthermore, the relative change in ΔEP at 10 mM tobramycin was 30% less than the gain seen in phosphate-buffered saline. Both of these effects were previously reported for serum tobramycin E-AB measurements performed by chronoamperometry, confirming that ΔEP is not more prone to fouling than, for example, chronoamperometric current decay lifetimes. […]

[4] = biological target: vancomycin-binding aptamer; experiment: Cyclic voltammetry ΔEP interrogation of vancomycin-detecting E-AB sensors in undiluted serum
Method: as §1, §2, §3

[5] = CV 5 V·s^−1, phosphate-buffered saline, relative to no target

CCN(CC)CCOC(=O)c1ccc(N)cc1 [procaine]
Kd ([1]; cyclic voltammetry, read-out: KD from calibration curve (ΔEP)): ~500 µM
relative decrease in ΔEP at saturating concentration ([1]; saturating procaine): ~80%
Kd [2]: 1900 µM and ~2000 µM

NC[C@H]1O[C@H](O[C@H]2[C@H](O)[C@@H](O[C@H]3O[C@H](CO)[C@@H](O)[C@H](N)[C@H]3O)[C@H](N)C[C@@H]2N)[C@H](N)C[C@@H]1O [tobramycin]
relative change in ΔEP in undiluted serum, less than the gain seen in phosphate-buffered saline ([3]; 10 mM tobramycin, undiluted serum vs phosphate-buffered saline): 30%
IP (peak current) increase, relative signal change at saturation (signal-on) [3, 5]: 20%
ΔEP decrease, relative signal change at saturation (signal-off) [3, 5]: 80%
Kd ([3]; CV at 5 V·s^−1, phosphate-buffered saline, Hill fit, 5 electrodes, read-out: KD (dissociation constant from ΔEP dose-response curve)): 80 ± 7 µM
ΔEP (peak-to-peak separation) after target addition ([3]; saturating tobramycin 10 mM, without target ~100 mV, scanning rates ~1-10 V·s^−1): ~30 mV
affinity in undiluted serum relative to phosphate-buffered saline ([3]; undiluted serum, ΔEP-based interrogation): significant decrease in affinity

CN[C@H](CC(C)C)C(=O)N[C@H]1C(=O)N[C@@H](CC(N)=O)C(=O)N[C@H]2C(=O)N[C@H]3C(=O)N[C@H](C(=O)N[C@H](C(=O)O)c4cc(O)cc(O)c4-c4cc3ccc4O)[C@H](O)c3ccc(c(Cl)c3)Oc3cc2cc(c3O[C@@H]2O[C@H](CO)[C@@H](O)[C@H](O)[C@H]2O[C@H]2C[C@](C)(N)[C@H](O)[C@H](C)O2)Oc2ccc(cc2Cl)[C@H]1O [vancomycin]
Kd ([4]; read-out: KD from serum calibration curve (ΔEP)): ~60 µM
total relative change in ΔEP at saturating concentration ([4]; saturating vancomycin): ~50%
